Data as given in patent US7945392B2, “Methods and systems for drug screening and computational modeling based on biologically realistic neurons” (McLean Hospital Corporation, priority 2005, dated 2011).

Tests used:
[1] = highly selective antagonist at the D4 receptor; cited from earlier work
D1 receptor = D1 receptor (Homo sapiens, UniProt P21728); assay: Fraction of receptors occupied, calculated from drug concentration and Ki; conditions: at a therapeutic olanzapine level
Source text: In particular, affinities of many drugs for receptors are well known. For example, Goodman and Gilmans “The Pharmacological Basis of Therapeutics,” Tenth Edition.

Sequence of D1 receptor (P21728 whole entry): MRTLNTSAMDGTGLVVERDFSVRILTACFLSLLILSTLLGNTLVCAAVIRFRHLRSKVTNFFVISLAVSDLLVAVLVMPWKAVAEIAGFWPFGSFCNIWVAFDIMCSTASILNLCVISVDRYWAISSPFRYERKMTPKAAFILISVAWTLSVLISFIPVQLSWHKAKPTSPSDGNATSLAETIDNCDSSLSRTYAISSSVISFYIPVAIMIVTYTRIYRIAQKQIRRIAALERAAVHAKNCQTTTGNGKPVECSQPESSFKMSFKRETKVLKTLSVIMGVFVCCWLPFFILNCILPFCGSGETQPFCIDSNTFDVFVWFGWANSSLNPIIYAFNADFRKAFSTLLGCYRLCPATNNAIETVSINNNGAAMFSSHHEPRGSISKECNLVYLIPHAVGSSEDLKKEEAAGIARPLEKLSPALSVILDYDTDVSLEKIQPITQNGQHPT

Structure (SMILES) | antipsychotic effectiveness [1] | D1 receptors blocked (antagonized) (D1 receptor)
Clc1ccc(N2CCN(Cc3c[nH]c4ncccc34)CC2)cc1 [L-745870] | ineffective | 
Cc1cc2c(s1)Nc1ccccc1N=C2N1CCN(C)CC1 [olanzapine] |  | approximately 47%
